According to publication PMC3151248, “High-Throughput Identification of Potential Minor Histocompatibility Antigens by MHC Tetramer-Based Screening: Feasibility and Limitations” (PLoS ONE, 2011):
Peptide text beside a SMILES is read from it.

System: pMHC tetramer positive T-cell lines
Conditions: 18 h

SMILES	IC50
CC[C@H](C)[C@H](NC(=O)[C@@H](N)CO)C(=O)N[C@@H](CCC(N)=O)C(=O)N[C@@H](CC(N)=O)C(=O)N[C@@H](Cc1ccc(O)cc1)C(=O)N[C@@H](Cc1c[nH]cn1)C(=O)N1CCC[C@H]1C(=O)N[C@@H](Cc1ccccc1)C(=O)N[C@@H](C)C(=O)O [P37 DOCK2SIQ] (H-SIQNYHPFA-OH)	~500 nM
CC(C)C[C@H](NC(=O)[C@H](CC(C)C)NC(=O)[C@H](CC(=O)O)NC(=O)[C@H](CC(=O)O)NC(=O)[C@H](Cc1c[nH]cn1)NC(=O)[C@H](CC(C)C)NC(=O)[C@@H](N)C(C)C)C(=O)N[C@@H](CCC(=O)O)C(=O)N[C@@H](C)C(=O)O [P46 HMHA1VLH] (H-VLHDDLLEA-OH)	~0.05 nM
CSCC[C@H](NC(=O)[C@@H](N)CO)C(=O)N[C@@H](CS)C(=O)N[C@@H](CCCNC(=N)N)C(=O)N[C@@H](Cc1ccccc1)C(=O)N[C@@H](CO)C(=O)N1CCC[C@H]1C(=O)N[C@@H](CC(C)C)C(=O)N[C@H](C(=O)N[C@@H](CC(C)C)C(=O)O)[C@@H](C)O [P309 HSPA6SMC] (H-SMCRFSPLTL-OH)	~5 nM

Results, then the molecule that gave them:

IC50	SMILES
~500 nM	CC(C)C[C@H](NC(=O)[C@@H]1CCCN1C(=O)[C@H](CC(C)C)NC(=O)[C@H](C)NC(=O)[C@H](C)NC(=O)[C@H](Cc1c[nH]c2ccccc12)NC(=O)[C@H](CC(C)C)NC(=O)[C@@H]1CCCN1C(=O)[C@H](CC(C)C)NC(=O)[C@H](CC(C)C)NC(=O)[C@@H](N)CCCNC(=N)N)C(=O)O [P104 ZFP36L2RLL] (H-RLLPLWAALPL-OH)
~0.05 nM	CC[C@H](C)[C@H](N)C(=O)N[C@@H](CCSC)C(=O)N[C@@H](C)C(=O)N[C@H](C(=O)N[C@@H](CCC(=O)O)C(=O)N[C@@H](CC(C)C)C(=O)N[C@@H](C)C(=O)N[C@@H](CCC(=O)O)C(=O)N[C@@H](CC(C)C)C(=O)O)[C@@H](C)CC [P218 MAP4K1IMA] (H-IMAIELAEL-OH)

Same assay, conditions: read-out: IC50, peptide concentration required for T-cell recognition (IFN γ production); HLA-A2+ T2 cells pulsed with peptide, 10-fold dilution steps from 10ug/ml; 18 h; IFN γ ELISA; value given for the group of cell lines

SMILES	IC50
CC[C@H](C)[C@H](NC(=O)[C@H](CC(=O)O)NC(=O)[C@H](CCSC)NC(=O)CNC(=O)[C@H](Cc1ccccc1)NC(=O)[C@H](CC(C)C)NC(=O)[C@H](CCC(=O)O)NC(=O)[C@H](Cc1c[nH]cn1)NC(=O)[C@H](CC(C)C)NC(=O)[C@@H](NC(=O)[C@@H](N)CCCCN)C(C)C)C(=O)O [P91 FLT3KVL] (H-KVLHELFGMDI-OH)	~5 nM
CSCC[C@H](NC(=O)[C@@H](N)CCCCN)C(=O)N[C@@H](CC(N)=O)C(=O)N[C@H](C(=O)N[C@@H](Cc1ccccc1)C(=O)N[C@@H](CC(=O)O)C(=O)N[C@H](C(=O)N[C@@H](CC(N)=O)C(=O)N[C@@H](CC(C)C)C(=O)O)[C@@H](C)O)C(C)C [P203 ATP2A3KMN] (H-KMNVFDTNL-OH)	~500 nM
